Laboratory results reported in patent US7314729B2, “Methods and kits for transferases” (Promega Corp., priority 2002, dated 2008).

Key:
Type in all cases: biochemical
[1] = target: T1, serine/threonine phosphatase PP2A (Homo sapiens, UniProt P67775); experiment: PP2A phosphatase assay with inhibitors (bis-STP-R110 phosphopeptide, Aminopeptidase M)
T1 construct: purchased Promega (Madison, Wis.)
Method: PP2A activity with STP-R-110. The phosphatase activity of phosphatase 2A (PP2A) was carried out in 50 ul volume containing 5 uM of phosphopeptide substrate bis-STP-R110 (RRAT(PO3)VA (SEQ. ID. NO:5)-R110-[…]), 40 mM Tris-HCl, pH 7.5, and 0.1 mg/ml BSA. Phosphatase reactions were initiated by adding the enzyme serine/threonine phosphatase PP2A from Promega (Madison, Wis.). The amount of PP2A added to each reaction was titrated in ½ increments, in a range from 0.0075 ng (0.015 munits) to 7.5 nanograms (15 munits), plus control reactions containing no enzyme. Phosphatase reactions were carried out for 10 minutes at room temperature in 96-well plates.
Phosphatase reactions were terminated with 25 ul of 2 uM okadaic acid ((9,10-Deepithio-9,10-didehydroacanthifolicin) (sodium salt)), a known inhibitor of PP2A. After termination, 25 mU/well of Aminopeptidase M was added in 40 mM Tris buffer, pH 7.5, 0.1 mg/ml BSA. The aminopeptidase reaction was incubated at room temperature, 25° C., for 90 minutes. Fluorescence was read as in Example 1.

[2] = target: T2, catalytic subunit of cAMP-dependent protein kinase (PKA) (Bos taurus, UniProt P00517); experiment: PKA kinase assay with inhibitors (bis-kemptide R110 substrate, Aminopeptidase M, fluorescence); conditions: 0.5 units PKA, 5 μM bis-kemptide, 50 μM ATP; FIG. 2
T2 construct: purchased Promega Corp., Madison, Wis
Method: The kinase activity of the catalytic subunit of cAMP-dependent protein kinase (PKA) from Promega Corp., Madison, Wis. was tested in triplicate in a 96-well plates using the following reaction components: 40 mM Tris-HCl, pH 7.5, 20 mM MgCl2, 0.1 mg/ml bovine serum albumin (BSA), 50 μM ATP, and 5 μM of LRRASLG (SEQ. ID. NO: 1)-R110—GLSARRL, a bis-rhodamine peptide kinase substrate also known as “bis-kemptide.” The final reaction volume was 50 uL. […] All kinase reactions were incubated at room temperature for 20 minutes.
The kinase reactions were terminated by adding a termination/detection reagent (25 ul) containing 100 mM EDTA and 25 mU aminopeptidase M (Calbiochem, San Diego, Calif.).
Enzymatic activity of the kinase was measured by taking a reading of the fluorescence, at the time of addition of actinonin and 3 hrs later to test the stability of the signal, with an excitation at 480 nm and fluorescence emission at 520-530 nm.
PKA Assay With Inhibitors. The effects of various inhibitors of PKA kinase were tested.
Fluorescence was detected with an excitation of 480 nm and fluorescence emission at 520-530 nm.

[3] = target: T3, tyrosine phosphatase PTP-1B (Homo sapiens, UniProt P18031); experiment: PTP-1B phosphatase assay with inhibitors (bis-PTK5p-R110 phosphopeptide, Aminopeptidase M); conditions: 25 mU/well PTP-1B, inhibitor zero up to 50 uM; FIG. 10
T3 sequence (P18031 1-435): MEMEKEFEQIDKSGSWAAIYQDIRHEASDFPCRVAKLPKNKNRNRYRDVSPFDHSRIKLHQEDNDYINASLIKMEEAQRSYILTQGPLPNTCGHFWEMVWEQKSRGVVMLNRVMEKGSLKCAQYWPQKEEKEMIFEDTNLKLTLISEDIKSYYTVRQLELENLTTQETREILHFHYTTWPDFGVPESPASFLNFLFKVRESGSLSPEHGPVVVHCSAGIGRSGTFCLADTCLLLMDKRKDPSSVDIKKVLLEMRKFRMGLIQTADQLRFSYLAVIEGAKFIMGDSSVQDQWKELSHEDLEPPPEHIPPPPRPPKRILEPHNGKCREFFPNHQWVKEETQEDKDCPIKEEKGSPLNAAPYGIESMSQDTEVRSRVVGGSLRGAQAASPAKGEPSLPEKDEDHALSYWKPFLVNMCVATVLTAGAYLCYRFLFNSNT
Method: The effect of various inhibitors were tested on the dephosphorylation of bis-PTK5p-R110 by the enzyme tyrosine phosphatase PTP-1B. […] Inhibitors were included in the reactions at concentrations ranging from zero inhibitor up to 50 uM. Phosphatase reactions were initiated by adding PTB-1B, which was added to each reaction at 25 mU/well. Control reactions containing no enzyme were also run.
Phosphatase reactions were terminated with 25 ul of a solution of Na3VO4 and 25 mU/well of Aminopeptidase M. Reactions were incubated at room temperature for 60 minutes.

T1 sequence (P67775 whole entry): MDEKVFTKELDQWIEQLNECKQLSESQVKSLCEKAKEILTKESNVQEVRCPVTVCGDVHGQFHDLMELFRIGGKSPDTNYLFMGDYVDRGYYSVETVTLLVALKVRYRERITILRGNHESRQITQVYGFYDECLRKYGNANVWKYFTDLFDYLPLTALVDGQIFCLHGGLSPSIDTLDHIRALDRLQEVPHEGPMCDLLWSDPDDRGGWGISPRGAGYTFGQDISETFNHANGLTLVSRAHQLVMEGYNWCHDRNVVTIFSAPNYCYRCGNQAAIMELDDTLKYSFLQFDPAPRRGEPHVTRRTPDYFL

Row | effect on kinase activity of PKA (fluorescence output with increasing inhibitor concentration) [2] | Compound | inhibition of dephosphorylation of bis-PTK5p-R110 by PTP-1B [3] | also measured
1 |  | C=C1[C@@H](O)[C@@H]2O[C@]3(CC[C@H](/C=C/[C@@H](C)[C@@H]4CC(C)=C[C@@]5(O[C@H](C[C@@](C)(O)C(=O)O)CC[C@H]5O)O4)O3)CC[C@H]2O[C@@H]1[C@@H](O)C[C@H](C)[C@H]1O[C@@]2(CCCCO2)CC[C@H]1C [okadaic acid, 9,10-Deepithio-9,10-didehydroacanthifolicin] |  | IC50 [1]: < 1 nM; inhibition of dephosphorylation of the substrate by PP2A ([1]; 2 nanograms PP2A (4 munits), 5 uM phosphopeptide substrate, inhibitor zero up to 100 nM, FIG. 7): inhibited
2 | without effect | CC1CNCCN1S(=O)(=O)c1cccc2cnccc12 (stereo not drawn) [H7, 1-(5-isoquinolinesulfonyl)-2-methylpiperzine] |  | 
3 | without effect | N#CC(=C(N)Sc1ccccc1N)C(C#N)=C(N)Sc1ccccc1N [U0126, 1,4-diamino-2,3-dicyano-1,4-bis-(2-aminophenylthio)butadiene] |  | 
4 |  | CN[C@@H]1C[C@H]2O[C@@](C)([C@@H]1OC)n1c3ccccc3c3c4c(c5c6ccccc6n2c5c31)C(=O)NC4 [staurosporin, (9S-(9α,10,11β,13α)-2,3,10,11,12,13-Hexahydro-10-methoxy-9-methyl-[1-(methylamino)-epoxy-1H,9H-diindolo[1,2,3-gh:3′,2′,1′-1m]pyrrolo{3,4-j]][1,7]benzodiazonin-1-one)] | had no effect | 
5 |  | Sodium vanadate [Na3VO4] | inhibition of PTP 1B enzyme activity | 
